Read-outs that look alike come from different tables or passages of the source.
Assays:
[1] = test system: homologous recombination in BxPC3 cells; set-up: method as in PMID 30660828; settings: earlier triazole; cited from earlier work
BRC4–RAD51 interaction = target: T1, BRC4–RAD51 interaction (Homo sapiens, UniProt Q06609); assay: Competitive biochemical ELISA assay (biotinylated BRC4 peptide vs RAD51); type: binding
T1 construct: purchased Creative Biomart (RAD51); Life Technologies (BRC4 peptide)
T1 sequence (Q06609 1-339): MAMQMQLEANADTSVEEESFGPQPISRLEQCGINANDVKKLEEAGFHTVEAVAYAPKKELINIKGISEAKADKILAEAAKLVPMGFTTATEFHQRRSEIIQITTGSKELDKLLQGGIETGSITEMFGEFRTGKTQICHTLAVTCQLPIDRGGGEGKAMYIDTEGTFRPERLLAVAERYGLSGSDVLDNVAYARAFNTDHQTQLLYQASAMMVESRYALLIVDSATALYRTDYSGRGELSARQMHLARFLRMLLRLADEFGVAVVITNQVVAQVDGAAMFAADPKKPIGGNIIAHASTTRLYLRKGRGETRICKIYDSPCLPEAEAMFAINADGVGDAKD
Method: To investigate the mechanism of action of the new dihydroquinolone pyrazoline derivatives, different biological assays were performed. As a primary screening, the ability of compounds 5d–57d to inhibit RAD51-BRCA2 interaction was investigated with a competitive biochemical ELISA assay against the parent compound 4d (Table 1). This assay is effective in evaluating the ability of new molecules to compete with BRC4 to bind to RAD51.[30] […] 18d–21d, 23d, 25d, 30d, and 31d were active at micromolar range, all very similar to the initial hit. […] The replacement of the aromatic ring A in combination with the substitution of the pyrazoline nitrogen with either propionyl or acetyl chain yielded compounds 33d–51d. […] As expected for PPI disruptors, the SARs of the new series of dihydroquinolone pyrazoline were rather complex to rationalize, with many cliffs and spikes that were difficult to understand. […] Accordingly, 4d, 12d, 18d, 20d–23d, 30d, 31d, 33d–36d, 39d, 45d, and 49d were submitted to cell-based study (Table 2).
Competitive ELISA screening assay using biotinylated BRC4 peptide to disrupt the BRC4–RAD51 interaction was performed by modifying the method described by Rajendra et al.[33] BRC4-biotinylated peptide (N-term biotin-[…] from Life Technologies) was used to coat 384-well plates (Nunc). After washing with PBS containing 0.05% Tween-20 (PBST) and blocking with the solution BSA 1% /PBST, overnight hybridization with human RAD51 protein (NP_002866 Creative Biomart, NY) was performed. Test compounds were added in dose response from 0.01 to 100 μM in triplicate with constant DMSO 1%. Antibody raised against RAD51 (Millipore) and HRP-secondary antibody staining to develop the 3,3′,5,5′-tetramethylbenzidine signal (Sigma) quenched with 1 M HCl was used as the assay readout. Colorimetric measure was read on a Victor5 (PerkinElmer) plate reader. BRC4 and Rad51 were included in the assay as positive control. Results were analyzed by using GraphPad software.

[2] = Solubility (as observed in cell culture media / stated); type: physicochemical; settings: cell culture media
[3] = test system: homologous recombination in BxPC3 cells; assay: Homologous recombination assay (two-plasmid recombination, real-time PCR); type: cell-based, human; settings: for HR inhibition (in words): BxPC3, one or two doses in the range of the ELISA EC50, NDD = not dose-dependent
Excerpt: (§1) Our working hypothesis is that compounds disrupting RAD51-BRCA2 interaction should affect HR repair and increase the efficacy of PARPi in treating breast, ovarian, and pancreatic cancer. For its clinical relevance, pancreatic adenocarcinoma was selected as our final model for cell-based experiments, and BxPC3 cells were selected for a straightforward comparison with the previously reported triazole derivatives.[30],[31] BxPC3 is derived from a human adenocarcinoma that expresses fully functional BRCA2.[38] As shown in Table 2 and according to the rationale of our hypothesis, our preliminary screening consisted of verifying the efficacy of compounds in inhibiting cell HR and/or in increasing the antiproliferative effect of olaparib. […] HR activity was assessed by evaluating the recombination rate between two transfected plasmids, using a commercially available assay. […] As for the emissucinic acid-containing compounds (4d, 12d, 18d, 20d–23d, 30d, 31d), one of the reasons for their lower potency in cells might be the general poor permeability, likely related to the ionizable acid moiety. […] We then characterized 35d in additional biophysical and cell-based experiments.
Homologous recombination (HR) was assessed by using a commercially available assay (Norgen). This assay is based on cell transfection with two plasmids that, upon cell entry, recombine. The efficiency of HR can be assessed by real-time PCR, using primer mixtures included in the assay kit. Different primer mixtures allow one to discriminate between the original plasmid backbones and their recombination product.
BxPC3 cells (2 × 10^5 per well) were seeded in a 24-well plate and allowed to adhere overnight. Co-transfection with the two plasmids was performed in Lipofectamine 2000 (Invitrogen) according to the manufacturer’s instructions. During transfection (5 h), cells were exposed to different doses of RAD51-BRCA2 disruptors, dissolved in RPMI in the presence of 0.6% DMSO. After washing with PBS, cells were harvested, and DNA was isolated using Illustra Tissue and Cell Genomic Prep Mini Spin kit (GE Healthcare). Sample concentration was measured using an ONDA Nano Genius photometer. The efficiency of HR was assessed by real-time PCR, using 25 ng of template, the primer mixtures included in the assay kit and following the protocol indicated by the manufacturer. Data analysis was based on the ΔΔCt method: [recombination product/backbone plasmids]^treated versus [recombination product/backbone plasmids]^control.

BxPC3 cells = assay: Cell viability assay (CellTiter-Glo), association with olaparib; type: cell-based, human; settings: BxPC3; one or two doses in the range of the ELISA EC50; concentration not given
Excerpt: as §1
Cell viability was assessed with the CellTiter-Glo luminescent cell viability assay from Promega. For this experiment, 1 × 10^4 cells in 200 μL of culture medium were seeded into each well of a 96-multiwell white body plate and allowed to adhere overnight. After 72 h incubation in the presence of olaparib (10 μM) and the RAD51-BRCA2 disruptors alone or in combination, the plate was allowed to equilibrate at room temperature for 30 min and the CellTiter-Glo reactive was directly added to each well. The plate was kept on a shaker for 10 min to induce cell lysis, and its luminescence was measured with a Fluoroskan Ascent FL reader (Labsystems).

Capan-1 cells = assay: Immunofluorescence of nuclear γ-H2AX foci (DNA damage); type: cell-based, human; settings: Capan-1, 48 h, 10 μM olaparib alone
Method: To evaluate DNA damage through γH2AX nuclear foci, BXPC3 and Capan1 cells were seeded on glass coverslips in 6-well tissue culture plate (2 × 10^5 cells/well) and allowed to adhere overnight. After 48 h treatment with olaparib (10 μM) or 35d (20 μM) given alone or in combination, cultures growing on coverslips were fixed and treated as described above. For this experiment, the used antibodies were a rabbit polyclonal anti-γH2AX (Abcam, 1:1000 in 5% BSA/PBS) and a secondary anti-rabbit rhodamine-labeled (Novus Biologicals, 1:1000 in 1% BSA/PBS). For both experiments, images were acquired using a Nikon fluorescent microscope equipped with filters for FITC, TRITC, and DAPI. The percentage of cells bearing nuclear foci was estimated by two independent observers, by analyzing 100–250 cells for each treatment sample.

[4] = Table 2, compounds selected for cell-based study, read-out: EC50 ELISA
[5] = competition with BRC4 for RAD51, triplicate, ± standard deviation, NA = not active, racemic mixtures unless enantiomer named, read-out: EC50 (μM) on ELISA assay

| SMILES | HR inhibition [1] [%] | EC50 (BRC4–RAD51 interaction; [4]) [µM] | EC50 (BRC4–RAD51 interaction; [5]) [µM] | solubility in cell culture media [2] | HR inhibition (in words) [3] | inhibition at 10 µM ([3]; Homo sapiens, BXPC-3, 10 μM, BxPC3, 5 h during plasmid transfection) [%] | olaparib association (increase of antiproliferative effect of olaparib) (BxPC3 cells) | γ-H2AX labeling in nuclei (Capan-1 cells) |
| --- | --- | --- | --- | --- | --- | --- | --- | --- |
| O=C(CSc1nnc(Cn2c(=O)sc3ccccc32)n1CCCc1ccccc1)NC1CCCCC1 [Compound 3] | ≤ 40 | – | – | – | – | – | – | – |
| COc1ccc(-c2ccc(C3CC(c4c(-c5ccccc5)c5cc(Cl)ccc5[nH]c4=O)=NN3C(=O)CCC(=O)O)cc2)cc1 (centres unmarked) [Compound 21d, 4-(3-(6-Chloro-2-oxo-4-phenyl-1,2-dihydroquinolin-3-yl)-5-(4′-methoxy-[1,1′-biphenyl]-4-yl)-4,5-dihydro-1H-pyrazol-1-yl)-4-oxobutanoic Acid] | – | 20 ± 4 | 20 ± 4 | poor solubility | – | – | – | – |
| CCn1ncc2cc(-c3ccc(C4CC(c5c(-c6ccccc6)c6cc(Cl)ccc6[nH]c5=O)=NN4C(=O)CCC(=O)O)cc3)ccc21 (centres unmarked) [Compound 30d, 4-(3-(6-Chloro-2-oxo-4-phenyl-1,2-dihydroquinolin-3-yl)-5-(4-(1-ethyl-1H-indazol-5-yl)phenyl)-4,5-dihydro-1H-pyrazol-1-yl)-4-oxobutanoic Acid] | – | 15 ± 3 | 15 ± 3 | poor solubility | – | – | – | – |
| CCC(=O)N1N=C(c2c(-c3ccccc3)c3cc(Cl)ccc3[nH]c2=O)CC1c1ccc(Br)cc1 (centres unmarked) [Compound 34d, 3-(5-(4-Bromophenyl)-1-propionyl-4,5-dihydro-1H-pyrazol-3-yl)-6-chloro-4-phenylquinolin-2(1H)-one] | – | 19 ± 1 | 19 ± 1 | poor solubility | HR inhibition = not present | – | – | – |
| CC(=O)N1N=C(c2c(-c3ccccc3)c3cc(Cl)ccc3[nH]c2=O)CC1c1ccc(Cl)cc1 (centres unmarked) [Compound 36d, 3-(1-Acetyl-5-(4-chlorophenyl)-4,5-dihydro-1H-pyrazol-3-yl)-6-chloro-4-phenylquinolin-2(1H)-one] | – | 10 ± 0.7 | 10 ± 0.7 | – | – | 24 | olaparib association = not present | – |
| CCCn1ncc2cc(C3CC(c4c(-c5ccccc5)c5cc(Cl)ccc5[nH]c4=O)=NN3C(C)=O)ccc21 (centres unmarked) [Compound 49d, 3-(1-Acetyl-5-(1-propyl-1H-indazol-5-yl)-4,5-dihydro-1H-pyrazol-3-yl)-6-chloro-4-phenylquinolin-2(1H)-one] | – | 0.95 ± 0.05 | 0.95 ± 0.05 | – | HR inhibition = not present | – | olaparib association = not present | – |
| O=C(c1cc(Cc2n[nH]c(=O)c3ccccc23)ccc1F)N1CCN(C(=O)C2CC2)CC1 [olaparib] | – | – | – | – | – | – | – | increased nuclear labeling |
